A short description of data set [1]: Pharmacokinetics of GLP-1 compound after oral gavage with delivery agent (subcutaneous control). It is filed as in vivo, Male Sprague Dawley rats. The conditions noted are these: rat. Here is the method: A solution of Val^8-Glu^22-GLP-1 was prepared by dissolving the GLP-1 compound in distilled water to yield a concentration of 7 mg/mL. The pH was slowly raised to 10.5 with 2 N NaOH, followed by incubation at room temperature for 30 minutes. A volume of 1 M Tris buffer, pH 8.0 was added to give a final buffer concentration 20 mM Tris, and the pH adjusted to pH 7.8 with 1 N or 5 N HCl. The solution was then filtered through a low protein binding […] syringe filter (Millex GV, Millipore) and the concentration of the GLP-1 compound was determined by UV spectroscopy. The solution was diluted to a final concentration of 5.5 mg/mL using 20 mM Tris buffer, pH 7.8. The peptide solution was then stored in 1.0 mL aliquots at −70° C. until used.
Final formulations were freshly prepared approximately 30 minutes to 1 hour prior to in vivo dosing by combining 4.5 mL of the delivery agent with 0.5 mL of the GLP-1 compound. The final formulations were dosed by oral gavage at 2 mL/kg (1.1 mg/kg GLP-1 compound, 300 mg/kg delivery agent) with to Male Sprague Dawley rats that were fasted for 12 hours prior to dosing. A subcutaneous dose of the GLP-1 compound alone was used as a control (0.011 mg/kg).

Data set [2] can be described thus: Stability studies of delivery agents, HPLC after three days storage. It is filed as physicochemical. The settings on record: prepared at 150 mg/mL. How it is done:
Stability studies were conducted for delivery agent numbers 9, 15, and 40. The delivery agents were freshly prepared as described above respectively to achieve the desired concentration of 150 mg/mL. The samples were divided into three 2 mL aliquots and stored at −20° C., 4° C., and ambient for three days. HPLC assay development and analyses were performed at the end of the storage period.

Data set [3] can be described thus: Solubility of delivery agents at desired formulation concentration. It is filed as physicochemical. The settings on record: for solubility at the desired concentration of 150 mg/mL: 0.1 N NaOH base, further base to pH 11.5, and cosolvents. How it is done: Approximately 600 mg of delivery agent number 15 was weighed into Type I glass vials to which 3 mL of base (0.1 N NaOH, pH 12.7) was added to achieve a final concentration of 200 mg/mL. The pH was adjusted to 7.1 and the concentration was estimated to be 171 mg/mL. Delivery agent number 15 was then diluted to 150 mg/mL with Milli-Q® water.
Delivery agents number 40 and 9 were insoluble at the desired concentration of 150 mg/mL when followed example 1. […] Cosolvents tested included ethanol, N-methylpyrrolidone, N,N-dimethylacetamide, N,N-dimethylformamide, glycofurol, ethoxydiol, propylene glycol, polyethyleneglycol 300, and polyvinylpyrrolidone.
However, for delivery agent number 40, 150 mg was weighed into a Type I vial, to which 1 mL of Milli-Q® water was added, and the pH adjusted with 10 N NaOH.
(§1) Approximately 1.7 mL of suspending agent was added to a Type I glass vial containing 300 mg of delivery agent number 9. The preparation was cooled on ice for 3 minutes, followed by probe sonication on ice for 30 minutes using a Misonix Sonicator® Ultrasonic Processor XL ( 3/16th inch microtip). […] The formulation was then diluted to 150 mg/mL with the suspending agent.

Data set [4] is described as follows: Mean particle size of delivery agent suspension (Coulter LS Particle Size Analyzer). The conditions noted are these: suspension in 4% w/v Klucel. The class given is physicochemical. Here is the method: as §1
The mark [5] stands for this setting: Peptide A 1.1 mg/kg + delivery agent 300 mg/kg, oral gavage, Tris suspension.
The mark [6] stands for this setting: Peptide A 1.1 mg/kg + delivery agent 300 mg/kg, oral gavage, Tris solution.
Setting [7] is: Peptide A alone, no delivery agent, Tris solution, subcutaneous control 0.011 mg/kg.
[8] abbreviates: stored at ambient for three days.
Where [9] appears, read: stored at −20° C. for three days.
Setting [10] is: Val8-Glu22-GLP-1 1.1 mg/kg + delivery agent 300 mg/kg, oral gavage, solution.
Where [11] appears, read: Peptide A 1.1 mg/kg + delivery agent 300 mg/kg, oral gavage, Klucel suspension.

Like-named read-outs stand apart in the source and are kept apart here. No end group written: not given here.

Take `O=C([O-])Cc1ccc(NC(=O)c2ccccc2O)cc1.[Na+]` [Delivery agent 21]: the AUC in data set [1] (setting [5]) was 57166 pg·min/mL.

For the compound `CN(c1ccc(CCCC(=O)O)cc1)S(=O)(=O)c1ccccc1` [Delivery agent 41], the AUC in data set [1] (setting [6]) worked out at 21679.1 pg·min/mL. Take `O=C(O)CCCCCCCNC(=O)/C=C/c1ccccc1F` [Delivery agent 51]: the AUC in data set [1] (setting [6]) was 10838 pg·min/mL. Regarding `CC(=O)c1ccccc1OCCCCCCCC(=O)[O-].[Na+]` [Delivery agent 29], in data set [1] (setting [6]), the AUC turned out to be 62303 pg·min/mL. Same read-out and setting: next, `CC(C)[C@H](NC(=O)C1CCCCC1)C(=O)O` [Delivery agent 48]: 6068.5 pg·min/mL; `O=C(O)c1ccc(NS(=O)(=O)c2ccccc2)cc1` [Delivery agent 39]: 6087 pg·min/mL; `CNC(=O)c1ccccc1OCCCCCCCC(=O)O` [Delivery agent 31]: 30164 pg·min/mL.

Regarding HVEGTFTSDVSSYLEEQAAKEFIAWLVKGRG [A], the AUC in data set [1] (setting [7]) was 93635 pg·min/mL; in data set [1] (male, Sprague Dawley, in vivo, sc, GLP-1 compound alone, solution, subcutaneous control 0.011 mg/kg, read-out: AUC (converted)), 93600 pg·min/mL. For the same compound, the Cmax in data set [1] (setting [7]) worked out at 3.781 ng/mL; in data set [1] (male, Sprague Dawley, in vivo, sc, GLP-1 compound alone, solution, subcutaneous control 0.011 mg/kg, read-out: Cmax), 3.78 ± 1.1 ng/mL. Also, the Tmax in data set [1] (setting [7]) was 10 ± 0 min; in data set [1] (male, Sprague Dawley, in vivo, sc, GLP-1 compound alone, solution, subcutaneous control 0.011 mg/kg, read-out: Tmax (converted)) it was 10 min.

As to `O=C(O)[C@@H](NS(=O)(=O)c1ccccc1)c1ccccc1` [Delivery agent 38], the AUC in data set [1] (setting [6]) worked out at 5669 pg·min/mL. As for `O=C(O)CCCc1ccc(NS(=O)(=O)c2ccccc2)cc1` [Delivery agent 40], the “Stability Data: delivery agent concentration” value (“Stability Data” for short) was 135.1 mg/mL in data set [2] (stored at 4° C. for three days), 135.3 mg/mL in data set [2] (setting [8]) and 134.0 mg/mL in data set [2] (setting [9]). The “solubility at the desired concentration of 150 mg/mL” value in data set [3] is listed as “insoluble”. For the same compound, the solution concentration achieved in data set [3] (Milli-Q water, pH adjusted with 10 N NaOH, pH 8.22) came to 150 mg/mL. For the same compound, the AUC in data set [1] (setting [6]) is 94215 pg·min/mL; in data set [1] (setting [10]), 94215 ± 66732 pg·min/mL. In the case of `O=C(O)CCCCCCCNC(=O)c1cc(Cl)ccc1O` [Delivery agent 9], the entries for the “Stability Data” value in data set [2] (stored at 4° C. for three days), in data set [2] (setting [8]) and in data set [2] (setting [9]) were 148.6 mg/mL, 146.0 mg/mL and 153.2 mg/mL, respectively. In addition, the “solubility at the desired concentration of 150 mg/mL” value in data set [3] was “insoluble”. Besides, the aqueous solubility result in data set [3] (aqueous) is on record as “aqueous insolubility”. The “mean particle size before sonication” value in data set [4] was 48 μm. Moreover, in data set [4] (probe sonication 30 minutes, pH 7.98), the “mean particle size after sonication” value was determined as 8 μm. For the same compound, the AUC in data set [1] (Val8-Glu22-GLP-1 1.1 mg/kg + delivery agent 300 mg/kg, oral gavage, Klucel suspension) was found to be 28144 ± 38576 pg·min/mL. Regarding `CN(C)CCCCCCNC(=O)c1ccccc1O` [Delivery agent 7], the AUC in data set [1] (setting [6]) stood at 204611 pg·min/mL. For the compound `Cc1cccc(C(=O)NCCCCCCCC(=O)[O-])c1[O-].[Na+].[Na+]` [Delivery agent 12], the AUC in data set [1] (setting [11]) is 35239 pg·min/mL. As for `COc1ccccc1C(=O)Nc1ccc(CCCC(=O)O)cc1` [Delivery agent 23], the AUC in data set [1] (setting [6]) amounted to 15747 pg·min/mL. `O=C(O)CCCCCCCNC(=O)c1ccccc1` [Delivery agent 2]: the AUC in data set [1] (setting [6]) worked out at 7202 pg·min/mL.

As for `O=C(N[C@@H](Cc1ccccc1)C(=O)O)c1ccccc1O` [Delivery agent 20], in data set [1] (setting [5]), the AUC was 21948 pg·min/mL. On to `CN(C)c1ccc(C(=O)Nc2ccc(CCCC(=O)O)cc2)cc1` [Delivery agent 24], for which the exposure (AUC) in data set [1] (setting [6]) amounted to 21559.2 pg·min/mL. On to `O=C(O)CCCCCCCNC(=O)c1ccccc1O` [Delivery agent 5], for which the AUC in data set [1] (setting [5]) stood at 40984 pg·min/mL. On to `O=C(O)CCCCCCCOc1ccccc1O` [Delivery agent 26], for which the AUC in data set [1] (setting [6]) came to 113480.1 pg·min/mL.

Take `CN(C(=O)c1ccccc1)c1ccc(CCCC(=O)[O-])cc1.[Na+]` [Delivery agent 19]: in data set [1] (setting [5]), the AUC is 290106.4 pg·min/mL. On the same count and under the same terms, next, `O=C(O)CCCCCCc1nnc(-c2ccccc2)o1` [Delivery agent 53]: 337360 pg·min/mL; `O=C(O)CCCCCCCNC(=O)c1ccncc1` [Delivery agent 34]: 6964.2 pg·min/mL.

For the compound `O=C(O)CCCCCCCOc1cccc(O)c1` [Delivery agent 27], the AUC in data set [1] (setting [11]) turned out to be 299137.2 pg·min/mL. As for `CN(CCCCCCCC(=O)O)C(=O)c1ccccc1` [Delivery agent 3], the AUC in data set [1] (setting [6]) came out at 237422.3 pg·min/mL. For the compound `O=C(O)CCCCCCCCCNC(=O)c1ccccc1O` [Delivery agent 6], in data set [1] (setting [5]), the AUC stood at 37926 pg·min/mL. For the compound `O=C(N[C@H](C(=O)O)c1ccccc1)c1ccccc1` [Delivery agent 55], the exposure (AUC) in data set [1] (setting [6]) was determined as 20177.7 pg·min/mL.

For the compound `O=C(O)CCCCc1nnc(-c2ccccc2O)o1` [Delivery agent 54], the AUC in data set [1] (setting [11]) came out at 218240.8 pg·min/mL; in data set [1] (setting [5]), 684087.3 pg·min/mL. For `O=C(O)CCCc1ccc(NC(=O)C2CCCCC2)cc1` [Delivery agent 44], in data set [1] (setting [6]), the AUC was 55671 pg·min/mL. As to `O=C(O)CCCCCCCNC(=O)c1ccccn1` [Delivery agent 32], the AUC in data set [1] (setting [5]) came to 130175.6 pg·min/mL. `COc1ccc(C(=O)NCCCCCCCC(=O)[O-])c([O-])c1.[Na+].[Na+]` [Delivery agent 15]: the “Stability Data” value in data set [2] (stored at 4° C. for three days) came to 138.2 mg/mL; in data set [2] (setting [8]), 137.4 mg/mL; in data set [2] (setting [9]), 135.5 mg/mL. Moreover, the AUC in data set [1] (setting [6]) was found to be 254291 pg·min/mL; in data set [1] (Peptide B + delivery agent, oral gavage, Tris solution) it was 82656 pg·min/mL; in data set [1] (setting [10]) it was 254291 ± 129387 pg·min/mL.

As for `O=C(N[C@@H](Cc1ccccc1)C(=O)O)C1CCCCC1` (stereo in doubt) [Delivery agent 46], the AUC in data set [1] (Peptide A 1.1 mg/kg + delivery agent 300 mg/kg, oral gavage, Klucel solution) is 4789.7 pg·min/mL; in data set [1] (setting [6]) it was 19304.1 pg·min/mL. In the case of `CN(CCCCCCCC(=O)O)C(=O)c1ccccc1O` [Delivery agent 8], the AUC in data set [1] (setting [6]) was 173548.6 pg·min/mL. As for `COc1ccc(C(=O)NCCCCCCCN(C)C)c(O)c1` [Delivery agent 16], the AUC in data set [1] (setting [11]) was 19972 pg·min/mL. For the compound `O=C(O)CCCCCCCNC(=O)C1CCCCC1` [Delivery agent 43], the AUC in data set [1] (setting [5]) is 7281 pg·min/mL.

On to `O=C(N[C@@H](Cc1ccccc1)C(=O)O)c1ccccc1` [Delivery agent 56], for which the AUC in data set [1] (setting [6]) turned out to be 48324.4 pg·min/mL. `CC(=O)c1ccccc1OCCCCCCCC(=O)O` [Delivery agent 28]: the results for the AUC in data set [1] (setting [6]) and in data set [1] (setting [5]) were 59543 pg·min/mL and 13116 pg·min/mL, respectively.

Turning to `CC(C)C[C@H](NC(=O)C1CCCCC1)C(=O)O` [Delivery agent 45], the AUC in data set [1] (setting [6]) was found to be 13468.0 pg·min/mL. On the same count and under the same terms, next, `CC(=O)c1ccccc1OCc1ccc(C(=O)O)cc1` [Delivery agent 30]: 35259 pg·min/mL; `COc1cc(O)ccc1C(=O)NCCCCCCCC(=O)O` [Delivery agent 14]: 160066.6 pg·min/mL.

Take `O=C(O)CCCCCCCNS(=O)(=O)c1ccccc1` [Delivery agent 36]: the AUC in data set [1] (setting [6]) was 42036 pg·min/mL.

The values above are taken from patent US7939494B2, “Method for administering GLP-1 molecules” (Emisphere Technologies, Inc., priority 2002, dated 2011).
